What is called IC50 is the midpoint of a concentration-inhibition curve.

We go through 84 compounds from patent publication EP4692061A1, “LOW-MOLECULAR-WEIGHT COMPOUND HAVING CEREBLON-BINDING ACTIVITY, AND USE THEREOF” (Aevis Bio, Inc., priority 2023, dated 2024).

The target of the first experiment is cereblon (CRBN) (Homo sapiens, UniProt Q96SW2). The experiment in a line: In vitro CRBN binding assay (AlphaScreen, competitive inhibition of the PROTAC assay).
Settings: not given
Background: In Alpha technology, singlet oxygen from a donor bead excites a nearby acceptor bead.
`O=C1CCC(c2ccc3c(c2)CCNC3=O)C(=O)N1` (stereo not drawn) [AEV40041] gave an IC50 of 760 nM.

Staying with this experiment, now noted: Table 1; AlphaScreen, PROTAC Optimization Kit for BET Bromodomain-Cereblon Binding; read-out: Alpha IC50.
As for `O=C1CCC(c2ccc(F)cc2)C(=O)N1` (stereo not drawn) [AEV40004], the IC50 was determined as 4430 nM.
As for `CC(=O)Nc1cccc(C2CCC(=O)NC2=O)c1` (stereo not drawn) [AEV40016], the IC50 came to 5280 nM.
Same read-out and setting: the result for `CC(C)C(=O)Nc1cccc(C2CCC(=O)NC2=O)c1` (stereo not drawn) [AEV40024] reads 6110 nM; that for `O=C1CCC(c2cccc(NS(=O)(=O)c3ccccc3)c2)C(=O)N1` (stereo not drawn) [AEV40025], 1860 nM.
With `Nc1cccc(C2CCC(=O)NC2=O)c1` (stereo not drawn) [AEV40029], the IC50 came to 2960 nM.
For `CS(=O)(=O)Nc1cccc(C2CCC(=O)NC2=O)c1` (stereo not drawn) [AEV40030], the half-maximal inhibitory concentration (IC50) was 7060 nM.
For `C[C@H](O)C(=O)Nc1cccc(C2CCC(=O)NC2=O)c1` (stereo partly drawn) [AEV40031], the IC50 is 3860 nM.
Same read-out and setting: the result for `O=C1CCC(c2ccc3c(c2)C(=O)NC3)C(=O)N1` (stereo not drawn) [AEV40032] reads 3100 nM; that for `CC(=O)Nc1ccc(F)c(C2CCC(=O)NC2=O)c1` (stereo not drawn) [AEV40034], 6260 nM.
As for `CC(C)C(=O)Nc1ccc(F)c(C2CCC(=O)NC2=O)c1` (stereo not drawn) [AEV40035], the IC50 was determined as 3110 nM.
Same read-out and setting: the result for `COc1ccc(CN2CCOc3ccc(C4CCC(=O)NC4=O)cc3C2=O)cc1` (stereo not drawn) [AEV40036] reads 1130 nM; that for `O=C1CCC(c2cccc(NS(=O)(=O)c3ccc(Cl)cc3)c2)C(=O)N1` (stereo not drawn) [AEV40037], 860 nM.
Still for that read-out and setting: to `O=C1CCC(c2cc(NS(=O)(=O)c3ccc(Cl)cc3)ccc2F)C(=O)N1` (stereo not drawn) [AEV40038] belongs 690 nM; to `Cc1ccc(C2CCC(=O)NC2=O)cc1` (stereo not drawn) [AEV40039], 870 nM.
In the case of `O=C1CCC(c2ccc3c(c2)CNC3=O)C(=O)N1` (stereo not drawn) [AEV40040], the IC50 stood at 1390 nM.
The same measure, in the same setting: the result for `COCCN1Cc2cc(C3CCC(=O)NC3=O)ccc2C1=O` (stereo not drawn) [AEV40042] reads 5400 nM; that for `Cc1c(Cl)cccc1S(=O)(=O)Nc1cccc(C2CCC(=O)NC2=O)c1` (stereo not drawn) [AEV40043], 910 nM.
The same measure, in the same setting: the result for `O=C1CCC(c2cccc(NS(=O)(=O)c3ccc(Cl)cc3F)c2)C(=O)N1` (stereo not drawn) [AEV40044] reads 230 nM; that for `O=C1CCC(c2cccc(NS(=O)(=O)c3ccccc3F)c2)C(=O)N1` (stereo not drawn) [AEV40045], 300 nM.
Regarding `CCc1ccc(S(=O)(=O)Nc2cccc(C3CCC(=O)NC3=O)c2)cc1` (stereo not drawn) [AEV40046], the IC50 was determined as 1000 nM.
In the case of `CCCc1ccc(S(=O)(=O)Nc2cccc(C3CCC(=O)NC3=O)c2)cc1` (stereo not drawn) [AEV40047], the IC50 came to 1500 nM.
The same measure, in the same setting: the result for `O=C1CCC(c2cccc(NS(=O)(=O)c3cccc4ccccc34)c2)C(=O)N1` (stereo not drawn) [AEV40048] reads 790 nM; that for `O=C1CCC(c2ccc3c(c2)CN(CCc2ccccc2)C3=O)C(=O)N1` (stereo not drawn) [AEV40049], 2060 nM; that for `CN1Cc2cc(C3CCC(=O)NC3=O)ccc2C1=O` (stereo not drawn) [AEV40050], 2680 nM.
Regarding `Cn1cnc(S(=O)(=O)Nc2cccc(C3CCC(=O)NC3=O)c2)c1` (stereo not drawn) [AEV40051], the IC50 worked out at 790 nM.
As for `Cc1c(F)cccc1S(=O)(=O)Nc1cccc(C2CCC(=O)NC2=O)c1` (stereo not drawn) [AEV40052], the IC50 was 950 nM.
Turning to `O=C1CCC(c2cccc(NS(=O)(=O)c3ccc([N+](=O)[O-])c(C(F)(F)F)c3)c2)C(=O)N1` (stereo not drawn) [AEV40053], the IC50 was found to be 750 nM.
Turning to `O=C1CCC(c2cccc(NS(=O)(=O)c3ccc(Cl)cc3Cl)c2)C(=O)N1` (stereo not drawn) [AEV40054], the IC50 was 200 nM.
In the case of `O=C1CCC(c2cccc(NS(=O)(=O)c3ccc([N+](=O)[O-])cc3)c2)C(=O)N1` (stereo not drawn) [AEV40055], the half-inhibitory concentration (IC50) was 200 nM.
With `O=C1CCC(c2cccc(NS(=O)(=O)c3cccc([N+](=O)[O-])c3)c2)C(=O)N1` (stereo not drawn) [AEV40056], the IC50 stood at 910 nM.
Still for that read-out and setting: the result for `O=C1CCC(c2cccc(NS(=O)(=O)c3ccccc3Cl)c2)C(=O)N1` (stereo not drawn) [AEV40057] reads 590 nM.
Still for that read-out and setting: to `O=C1CCC(c2cccc(NS(=O)(=O)c3cccc(Cl)c3Cl)c2)C(=O)N1` (stereo not drawn) [AEV40058] belongs 680 nM; to `CS(=O)(=O)N1Cc2cc(C3CCC(=O)NC3=O)ccc2C1=O` (stereo not drawn) [AEV40059], 102000 nM; to `Cc1ccc([N+](=O)[O-])cc1S(=O)(=O)Nc1cccc(C2CCC(=O)NC2=O)c1` (stereo not drawn) [AEV40060], 1520 nM.
The same measure, in the same setting: the result for `O=C1CCC(c2cccc(NS(=O)(=O)c3ccccc3[N+](=O)[O-])c2)C(=O)N1` (stereo not drawn) [AEV40061] reads 590 nM; that for `O=C1CCC(c2ccc3c(c2)NC(=O)C3)C(=O)N1` (stereo not drawn) [AEV40062], 2390 nM; that for `O=C1CCC(c2ccc(NS(=O)(=O)c3ccc(Cl)cc3)cc2)C(=O)N1` (stereo not drawn) [AEV40063], 1430 nM.
As to `O=C1CCC(c2cccc(NS(=O)(=O)c3ccccc3C(F)(F)F)c2)C(=O)N1` (stereo not drawn) [AEV40070], the IC50 amounted to 1050 nM.
`O=C1CCC(c2cccc(NS(=O)(=O)c3ccc4oc(=O)ccc4c3)c2)C(=O)N1` (stereo not drawn) [AEV40071]: the IC50 came to 220 nM.
Turning to `O=C1CCC(c2cccc(NS(=O)(=O)c3cccs3)c2)C(=O)N1` (stereo not drawn) [AEV40072], the IC50 was 310 nM.
`Nc1cccc(S(=O)(=O)Nc2cccc(C3CCC(=O)NC3=O)c2)c1` (stereo not drawn) [AEV40073]: the 50% inhibitory concentration (IC50) is 590 nM.
For `Nc1ccccc1S(=O)(=O)Nc1cccc(C2CCC(=O)NC2=O)c1` (stereo not drawn) [AEV40074], the IC50 was 270 nM.
As to `Nc1ccc(S(=O)(=O)Nc2cccc(C3CCC(=O)NC3=O)c2)cc1C(F)(F)F` (stereo not drawn) [AEV40075], the IC50 came to 1120 nM.
On the same count and under the same terms, to `O=C1CCC(c2cccc(NC(=O)c3ccc(Cl)cc3Cl)c2)C(=O)N1` (stereo not drawn) [AEV40076] belongs 1350 nM; to `O=C1CCC(c2ccc3c(c2)CN(S(=O)(=O)c2ccc(Cl)cc2)C3=O)C(=O)N1` (stereo not drawn) [AEV40077], 55300 nM; to `O=C1CCC(c2ccc3c(c2)C(=O)NCC3)C(=O)N1` (stereo not drawn) [AEV40078], 3110 nM.
`O=C1CCC(c2ccc3c(c2)OCCNC3=O)C(=O)N1` (stereo not drawn) [AEV40079]: the IC50 was 2440 nM.
As for `O=C1CCC(c2ccc3c(c2)OCCN(c2ccccc2)C3=O)C(=O)N1` (stereo not drawn) [AEV40085], the IC50 was 6580 nM.
Turning to `O=C1CCC(c2ccc3c(c2)OCCN(Cc2ccccc2)C3=O)C(=O)N1` (stereo not drawn) [AEV40086], the IC50 was 4140 nM.
`O=C1CCC(c2cccc(NCc3ccccc3)c2)C(=O)N1` (stereo not drawn) [AEV40087]: the IC50 turned out to be 1150 nM.
Same read-out and setting: the result for `O=C1CCC(c2cccc(NC(=O)c3ccccc3)c2)C(=O)N1` (stereo not drawn) [AEV40088] reads 2190 nM; that for `O=C1CCC(c2cccc(O)c2)C(=O)N1` (stereo not drawn) [AEV40089], 1140 nM.
Regarding `O=C1CCC(c2cccc(NCc3ccc(Cl)cc3)c2)C(=O)N1` (stereo not drawn) [AEV40090], the IC50 turned out to be 2140 nM.
With `Cc1ccc(CNc2cccc(C3CCC(=O)NC3=O)c2)s1` (stereo not drawn) [AEV40092], the IC50 came to 970 nM.
Same read-out and setting: the result for `Cc1ccc(CNc2cccc(C3CCC(=O)NC3=O)c2)c(C)c1` (stereo not drawn) [AEV40094] reads 810 nM.
The same measure, in the same setting: to `Cc1ccc(CNc2cccc(C3CCC(=O)NC3=O)c2)cc1F` (stereo not drawn) [AEV40095] belongs 1580 nM; to `COc1cc(Cl)ccc1CNc1cccc(C2CCC(=O)NC2=O)c1` (stereo not drawn) [AEV40096], 990 nM; to `O=C1CCC(c2cccc(NCc3ccc(F)cc3O)c2)C(=O)N1` (stereo not drawn) [AEV40097], 990 nM.
On to `CC(C)(C)c1ccc(CNc2cccc(C3CCC(=O)NC3=O)c2)cc1` (stereo not drawn) [AEV40098], for which the IC50 is 2850 nM.
`O=C1CCC(c2cccc(NS(=O)(=O)c3ccc(C(F)(F)F)cc3)c2)C(=O)N1` (stereo not drawn) [AEV40100]: the IC50 is 1390 nM.
For the compound `O=C1CCC(c2cccc(NS(=O)(=O)c3ccc(F)cc3)c2)C(=O)N1` (stereo not drawn) [AEV40101], the IC50 came out at 1300 nM.
As for `Cc1ccc(CNc2cccc(C3CCC(=O)NC3=O)c2)cc1` (stereo not drawn) [AEV40102], the IC50 was found to be 1240 nM.
As to `O=C1CCC(c2cccc(NCc3ccc(Oc4ccccc4)cc3)c2)C(=O)N1` (stereo not drawn) [AEV40103], the IC50 is 3130 nM.
On the same count and under the same terms, the result for `O=C1CCC(c2cccc(NCc3ccc(C(F)(F)F)cc3)c2)C(=O)N1` (stereo not drawn) [AEV40104] reads 1720 nM; that for `O=C1CCC(c2cccc(NCc3cccc(C(F)F)c3)c2)C(=O)N1` (stereo not drawn) [AEV40105], 1420 nM; that for `Cc1cccc(CNc2cccc(C3CCC(=O)NC3=O)c2)c1` (stereo not drawn) [AEV40106], 1140 nM.
Consider `O=C1CCC(c2cccc(NCc3cccc(F)c3)c2)C(=O)N1` (stereo not drawn) [AEV40107], for which the IC50 was 1490 nM.
On to `COc1cc(C)ccc1CNc1cccc(C2CCC(=O)NC2=O)c1` (stereo not drawn) [AEV40108], for which the concentration for half-maximal inhibition (IC50) is 840 nM.
Regarding `O=C1CCC(c2cccc(NCc3ccc(Br)cc3Cl)c2)C(=O)N1` (stereo not drawn) [AEV40109], the IC50 amounted to 2520 nM.
Still for that read-out and setting: the result for `O=C1CCC(c2cccc(NCc3cc(F)c(F)c(F)c3)c2)C(=O)N1` (stereo not drawn) [AEV40110] reads 1960 nM; that for `Cc1cn(C)nc1CNc1cccc(C2CCC(=O)NC2=O)c1` (stereo not drawn) [AEV40113], 660 nM.
Take `O=C1CCC(c2cccc(NCc3cccc4ccccc34)c2)C(=O)N1` (stereo not drawn) [AEV40120]: the IC50 stood at 1410 nM.
`O=C1CCC(c2cccc(NCc3cccc(Oc4ccccc4)c3)c2)C(=O)N1` (stereo not drawn) [AEV40121]: the IC50 came out at 3040 nM.
On to `O=C1CCC(c2cccc(NCc3ccc(-c4ccccc4)cc3)c2)C(=O)N1` (stereo not drawn) [AEV40122], for which the IC50 came to 2470 nM.
Take `O=C1CCC(c2cccc(NC(=O)Nc3ccccc3)c2)C(=O)N1` (stereo not drawn) [AEV40129]: the IC50 is 370 nM.
For `CC(C)(C)OC(=O)NCc1cccc(C2CCC(=O)NC2=O)c1` (stereo not drawn) [AEV40130], the IC50 came to 4330 nM.
For the compound `O=C1CCC(c2cccc(NC(=O)Nc3ccc(Cl)cc3)c2)C(=O)N1` (stereo not drawn) [AEV40131], the IC50 is 190 nM.
For the compound `NCc1cccc(C2CCC(=O)NC2=O)c1` (stereo not drawn) [AEV40132], the IC50 is above 10000 nM.
With `O=C1CCC(c2cccc(NC(=O)Nc3ccc(C(F)(F)F)cc3)c2)C(=O)N1` (stereo not drawn) [AEV40133], the IC50 was 1260 nM.
Take `O=C1CCC(c2cccc(NC(=O)c3cccc(Cl)c3Cl)c2)C(=O)N1` (stereo not drawn) [AEV40134]: the IC50 was found to be 1130 nM.
For the compound `O=C1CCC(c2cccc(NS(=O)(=O)c3cccc(NC(=O)c4ccc(Cl)cc4)c3)c2)C(=O)N1` (stereo not drawn) [AEV40135], the IC50 came out at 1200 nM.
Turning to `O=C1CCC(c2cccc(NS(=O)(=O)c3cccc(NC(=O)c4cccc(Cl)c4)c3)c2)C(=O)N1` (stereo not drawn) [AEV40136], the IC50 was 790 nM.

Still in this experiment, the particulars now being: read-out: Alpha IC50; Table 1; AlphaScreen, PROTAC Optimization Kit for BET Bromodomain-Cereblon Binding.
For `Cc1cccc(S(=O)(=O)Nc2cccc(C3CCC(=O)NC3=O)c2)c1` (stereo not drawn) [AEV40069], the IC50 is 710 nM.
